For test [1], the system named is α-glucosidase from the rat small intestine. Kind of test: Inhibitory activity assay for rat intestinal α-glucosidase. It counts as biochemical. As to conditions: for IC50: rat small intestine α-glucosidase, means ± SEs, n = 3, ND: not detected, isolated compounds tested at 0.1–10 µg/mL. As for the experimental part:
In a centrifuge tube at 4 °C, 200 mg of rat intestine acetone granules (Sigma-Aldrich, Tokyo, Japan) was placed in 8 mL of physiological saline (0.9 g of NaCl was dissolved in 100 mL pure water). The resulting suspension was homogenized with sonication equipment (Branson, Danbury, CT, USA) for 60 s (ultrasonic treatment cycles: 50, output control: 5) in an ice bath. The resulting homogenate was centrifuged (14,400× g, −21 °C for 20 min) with a high-speed refrigerated centrifuge (Himac CR21N, Hitachi Koki Co, Ltd., Tokyo, Japan). The resulting supernatant was used as an enzyme preparation, and stored at −30 °C until use. Then the measurement of inhibitory activity of isolated compounds against α-glucosidase from the rat small intestine followed the method used to measure the activity of yeast enzymes (S. cerevisiae). The concentration of the isolated compounds used is 0.1–10 µg/mL (0.2–23 µM).

Test [2] can be described thus: DPPH free radical scavenging activity. As to conditions: means ± SEs, n = 3; for DPPH IC50 / IC50: isolated compounds.
Experimental: The antioxidative activities of the fractions were assayed for the scavenging of 2,2-diphenyl-1-picrylhydrazyl (DPPH) (Sigma-Aldrich, Darmstadt, Germany). Free radicals were assayed using a previously reported method [48] with some modifications. The fractions of EEP, isolated compounds and Trolox (Sigma-Aldrich, Darmstadt, Germany) were dissolved in methanol to make a 50 ppm solution. Each of the test sample solutions (0, 20, 40, 60, 80, and 100 µL) were added into a mixture (0.9 mL) of 0.4 mM DPPH solution, 20% methanol aqueous solution, and 0.2 M MES (2-(N-morpholino) ethanesulfonic acid) (Dojindo, Wako Junyaku Kogyo Co., Ltd., Osaka, Japan) buffer solution (1:1:1). The resulting mixtures were shaken on a vortex mixer and allowed to stand for 20 min. The absorbance of the remaining DPPH was measured with a microplate reader (Biotech, Tokyo, Japan) at 520 nm. […] The inhibitory concentration that results in 50% scavenging of DPPH radicals (IC50) was estimated based on the plot of inhibition versus the final concentration of the propolis samples. The results are expressed in µg Trolox Equivalents (TE) per mL.
Test [3] deals with α-glucosidase (Saccharomyces cerevisiae, UniProt P53341). Description: Determination of inhibitory type by kinetic analysis (Lineweaver–Burk, Dixon plots). It counts as biochemical. As to conditions: for Inhibition Mode: Lineweaver–Burk plot, inhibitor 0, 0.2, 2 µg/mL, p-NPG substrate; for Ki’: mixed inhibition, affinity for enzyme–substrate. As for the experimental part:
Inhibitory mechanisms of isolated triterpenes against α-glucosidase at some concentrations (0, 0.2, and 2 µg/mL) were analyzed by the Lineweaver–Burk plot (Figure 2 and Figure 3).
The inhibition activity of isolated triterpenes against α-glucosidase was measured with different concentrations (0, 1, 2.5, 5, and 10 mM) of p-NPG as a substrate in the presence or absence of different concentrations (0, 0.2, and 2 µg/mL) of the compounds. The mode of inhibition was then determined by Lineweaver–Burk plot analysis, which was calculated using Michaelis–Menten kinetics. Inhibition constants (Ki) were determined by analysis of Dixon plots and plots of the Y-intercept of the Lineweaver–Burk plot versus the inhibitor [44, 49]. All data are expressed as means ± standard errors of triplicate determinations.

The target in test [4] is α-glucosidase. As to conditions: cited from earlier work.
Test [5] addresses α-glucosidase from Saccharomyces cerevisiae (Saccharomyces cerevisiae, UniProt P53341). Description: Inhibitory activity assay for yeast α-glucosidase (pNPG substrate). It counts as biochemical. As for the experimental part: The inhibitory activity of α-glucosidase from Saccharomyces cerevisiae (Sigma-Aldrich, Tokyo, Japan) of the isolation compounds was determined using a previously reported procedure with modifications. p-Nitrophenyl α-glucopyranoside (pNPG) (Sigma-Aldrich, Tokyo, Japan) was used as a substrate. Other chemicals used were of analytical grade. […] Then, 40 µL of 3 mM pNPG solution was added, and the mixture was incubated at 37 °C for 20 min. The reaction was stopped by adding a solution of Na2CO3 (0.1 M, 200 µL), and the absorbance (at 405 nm) of the resulting solution was measured via an Epoch microplate reader (Biotech, Tokyo, Japan). All experiments were performed in three independent replicates. The inhibition of isolated compounds on α-glucosidase was calculated as follows:(2) Inhibition (%)=(1−A1/A0)×100 where A0 is the absorbance of the control, and A1 is the absorbance of the propolis samples. The IC50 values were determined as the half-maximal inhibitory concentration of the inhibitor (isolated compound) which provides 50% inhibition.

Structures are written as SMILES.

α-glucosidase (Saccharomyces cerevisiae, UniProt P53341), sequence (P53341 whole entry): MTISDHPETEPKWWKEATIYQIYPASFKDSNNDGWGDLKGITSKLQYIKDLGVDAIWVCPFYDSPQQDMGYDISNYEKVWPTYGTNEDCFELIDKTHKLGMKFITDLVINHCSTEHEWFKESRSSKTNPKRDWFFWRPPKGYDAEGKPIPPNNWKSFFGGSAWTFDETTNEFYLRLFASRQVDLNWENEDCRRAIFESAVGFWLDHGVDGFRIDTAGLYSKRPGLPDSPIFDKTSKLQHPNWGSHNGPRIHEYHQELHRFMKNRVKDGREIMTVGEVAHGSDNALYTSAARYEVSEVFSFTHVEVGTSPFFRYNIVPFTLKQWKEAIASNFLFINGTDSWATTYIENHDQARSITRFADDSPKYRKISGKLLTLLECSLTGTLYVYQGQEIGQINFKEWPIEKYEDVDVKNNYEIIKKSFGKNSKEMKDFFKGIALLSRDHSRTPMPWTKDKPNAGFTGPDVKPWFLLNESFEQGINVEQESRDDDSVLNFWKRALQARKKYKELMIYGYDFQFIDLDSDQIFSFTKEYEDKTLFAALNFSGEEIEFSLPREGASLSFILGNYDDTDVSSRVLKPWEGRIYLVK
α-glucosidase from Saccharomyces cerevisiae, sequence (P53341 whole entry): as above

For orientation: IC50 means the midpoint of a concentration-inhibition curve. Turning to `OCC(CO)N[C@H]1C[C@](O)(CO)[C@@H](O)[C@H](O)[C@H]1O` [Voglibose], in test [1], the “inhibitory activity against α-glucosidase from the rat small intestine, in words” value is on record as “very high inhibitory activity” and the IC50 came out at 78.6 ± 1.27 µM.

As to `C=C(CCC(C)C1CCC2(C)C3CCC4C(C)(C)C(=O)CCC45CC35CCC12C)C(C)C(=O)O` (centres unmarked) [Ambonic acid (3), ambonic acid], in test [2], the “DPPH IC50” value worked out at 42.45 ± 4.5 µg/mL and the IC50 came to 90.6 ± 9.6 µM. In addition, at α-glucosidase [3], the “Inhibition Mode” value is given as “Mixed inhibition” and the “Ki’” value was 6.42 µM. On α-glucosidase [3] (listed as 3), the “Inhibition Mode” value is “mixed-type inhibition”.

`C=C(CC[C@@H](C)[C@H]1CC[C@@]2(C)[C@@H]3CC[C@H]4C(C)(C)C(=O)CC[C@@]45C[C@@]35CC[C@]12C)C(C)C` [24-methylenecycloartenone]: the IC50 at α-glucosidase [4] (isolated from Schisandra chinensis, read-out: IC50 against α-glucosidase) was 2360 nM.

For the compound `CC(C)=CCC[C@@H](C)[C@H]1CC[C@@]2(C)[C@@H]3CC[C@H]4C(C)(C)[C@@H](O)CC[C@@]45C[C@@]35CC[C@]12C` [Cycloartenol (2), cycloartenol], in test [2], the “DPPH IC50” value worked out at 120.21 ± 11.2 µg/mL and it took 282 ± 26.3 µM to reach half-maximal inhibition (IC50). Moreover, the “Inhibition Mode” value on α-glucosidase [3] was “Uncompetitive”. For the same compound, the “Inhibition Mode” value on α-glucosidase [3] (listed as 2) was “uncompetitive inhibition”.

Take `Cc1c(C)c2c(c(C)c1O)CCC(C)(C(=O)O)O2` (centres unmarked) [Trolox, reference compound]: the “Antioxidant Activity IC50” value in test [2] (DPPH, propolis fractions P1 and P2) is recorded as 6.76 ± 0.395 µg/mL. Also, in test [2], the “DPPH IC50” value is given as 7.17 ± 0.13 µg/mL and the concentration for half-maximal inhibition (IC50) is 28.6 ± 0.52 µM.

Take `Oc1cc(O)c2c(c1)O[C@H](c1ccc(O)c(O)c1)[C@H](O)C2` [(–)-Epicatechin]: the “inhibitory activity against α-glucosidase from the yeast (S. cerevisiae), in words” value in test [5] is “showed inhibitory activity”. Also, the “inhibitory activity against α-glucosidase from the rat small intestine, in words” value in test [1] is reported as “no inhibitory activity”. Moreover, the “inhibitory value on α-glucosidase” value in the test with α-glucosidase [4] is given as “around 96%”.

Turning to `C=C(CCC(C)C1CCC2(C)C3CCC4C(C)(C)C(O)CCC45CC35CCC12C)C(C)C(=O)O` (centres unmarked) [Ambolic acid (5), ambolic acid], in test [2], the “DPPH IC50” value was found to be 132.30 ± 13.9 µg/mL and the IC50 was determined as 281 ± 29.5 µM. At α-glucosidase [3], the “Inhibition Mode” value is “Mixed inhibition” and the “Ki’” value is on record as 4.58 µM. For the same compound, the “Inhibition Mode” value at α-glucosidase [3] (listed as 5) is recorded as “mixed-type inhibition”.

With `C/C(=C\CC[C@@H](C)[C@H]1CC[C@@]2(C)[C@@H]3CC[C@H]4C(C)(C)[C@@H](O)CC[C@@]45C[C@@]35CC[C@]12C)C(=O)O` [Mangiferolic acid (1), mangiferolic acid], in test [2], the “DPPH IC50” value stood at 12.38 ± 3.0 µg/mL and the IC50 was found to be 27.1 ± 6.57 µM. In addition, the “Inhibition Mode” value on α-glucosidase [3] is given as “Uncompetitive”. For the same compound, at α-glucosidase [3] (listed as 1), the “Inhibition Mode” value is given as “uncompetitive inhibition”.

For the compound `C/C(=C\CC[C@@H](C)[C@H]1CC[C@@]2(C)[C@@H]3CC[C@H]4C(C)(C)C(=O)CC[C@@]45C[C@@]35CC[C@]12C)C(=O)O` [Mangiferonic acid (4), mangiferonic acid], in test [2], the “DPPH IC50” value is on record as 17.16 ± 2.98 µg/mL and half-maximal inhibition (IC50) required 37.7 ± 6.55 µM. On α-glucosidase [3], the “Inhibition Mode” value is reported as “Mixed inhibition” and the “Ki’” value is given as 3.23 µM. Besides, on α-glucosidase [3] (listed as 4), the “Inhibition Mode” value is reported as “mixed-type inhibition”.

Take `C[C@H]1O[C@H](O[C@H]2[C@H](O)[C@@H](O)[C@@H](O[C@H]3[C@H](O)[C@@H](O)C(O)O[C@@H]3CO)O[C@@H]2CO)[C@H](O)[C@@H](O)[C@@H]1N[C@H]1C=C(CO)[C@@H](O)[C@H](O)[C@H]1O` (some centres unmarked) [Acarbose]: in test [5], the “inhibitory activity against α-glucosidase from the yeast (S. cerevisiae), in words” value is reported as “no activity at all”. Also, in test [1], the “inhibitory activity against α-glucosidase from the rat small intestine, in words” value is listed as “very high inhibitory activity” and the IC50 worked out at 209 ± 0.96 µM.

The record behind these values is paper PMC6789647, “α-Glucosidase Inhibitory Activity of Cycloartane-Type Triterpenes Isolated from Indonesian Stingless Bee Propolis and Their Structure–Activity Relationship” (Pharmaceuticals, 2019).
